Values of other authors in patent US6815409B2, “Gel laundry detergent and/or pretreater which piles up after dispensing” (Unilever Home & Personal Care USA division of Conopco, Inc., priority 2002, dated 2004).

Conditions: chain length 16; cited from Proc. R. Soc. London, A133, 140, 1931

## CCCCCCCCCCCCCCCC(=O)O [Fatty acid chain length 16]
  Measured pKa value: 8.5
